These molecules were tested on MS-1 (assay: cells). Conditions: Homo sapiens, MS-1.
Assay type: functional, cell-based, Homo sapiens
Description: SANGER: Inhibition of human MS-1 cell growth in a cell viability assay.

| SMILES | IC50 [nM] |
| --- | --- |
| Cc1cc(N2CCOCC2)cc2[nH]c(-c3c(NC[C@@H](O)c4cccc(Cl)c4)cc[nH]c3=O)nc12 | > 5120 |

Each molecule was assayed on NB13 (assay: cells). Conditions: Homo sapiens, NB13.
Assay type: functional, cell-based, Homo sapiens
Description: SANGER: Inhibition of human NB13 cell growth in a cell viability assay.

| SMILES | IC50 [nM] |
| --- | --- |
| Cc1cc(N2CCOCC2)cc2[nH]c(-c3c(NC[C@@H](O)c4cccc(Cl)c4)cc[nH]c3=O)nc12 | > 5120 |

Each molecule was assayed on NB69 (assay: cells). Conditions: Homo sapiens, NB69.
Assay type: functional, cell-based, Homo sapiens
Description: SANGER: Inhibition of human NB69 cell growth in a cell viability assay.

| SMILES | IC50 [nM] |
| --- | --- |
| Cc1cc(N2CCOCC2)cc2[nH]c(-c3c(NC[C@@H](O)c4cccc(Cl)c4)cc[nH]c3=O)nc12 | 293 |

The molecules below were run on NCI-H209 (assay: cells). Conditions: Homo sapiens, NCI-H209.
Assay type: functional, cell-based, Homo sapiens
Description: SANGER: Inhibition of human NCI-H209 cell growth in a cell viability assay.

| SMILES | IC50 [nM] |
| --- | --- |
| Cc1cc(N2CCOCC2)cc2[nH]c(-c3c(NC[C@@H](O)c4cccc(Cl)c4)cc[nH]c3=O)nc12 | > 5120 |

What follows are molecules tested on NCI-H82 (assay: cells). Conditions: Homo sapiens, NCI-H82.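 Also: growth inhibition of NCI-H82 cells, measured with a cell viability readout.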
Assay type: functional, cell-based, Homo sapiens
Description: SANGER: Inhibition of human NCI-H82 cell growth in a cell viability assay.

| SMILES | IC50 [nM] |
| --- | --- |
| Cc1cc(N2CCOCC2)cc2[nH]c(-c3c(NC[C@@H](O)c4cccc(Cl)c4)cc[nH]c3=O)nc12 | > 5120 |

Each molecule was assayed on NMC-G1 (assay: cells). Conditions: Homo sapiens, NMC-G1.
Assay type: functional, cell-based, Homo sapiens
Description: SANGER: Inhibition of human NMC-G1 cell growth in a cell viability assay.

| SMILES | IC50 [nM] |
| --- | --- |
| Cc1cc(N2CCOCC2)cc2[nH]c(-c3c(NC[C@@H](O)c4cccc(Cl)c4)cc[nH]c3=O)nc12 | 4610 |

Each molecule was assayed on NTERA-2-cl-D1 (assay: cells). Conditions: Homo sapiens, NTERA-2-cl-D1.
Assay type: functional, cell-based, Homo sapiens
Description: SANGER: Inhibition of human NTERA-S-cl-D1 cell growth in a cell viability assay.

| SMILES | IC50 [nM] |
| --- | --- |
| Cc1cc(N2CCOCC2)cc2[nH]c(-c3c(NC[C@@H](O)c4cccc(Cl)c4)cc[nH]c3=O)nc12 | 257 |

Each molecule was assayed on Ramos-2G6-4C10 (assay: cells). Conditions: Homo sapiens, Ramos-2G6-4C10.
Assay type: functional, cell-based, Homo sapiens
Description: SANGER: Inhibition of human Ramos-2G6-4C10 cell growth in a cell viability assay.

| SMILES | IC50 [nM] |
| --- | --- |
| Cc1cc(N2CCOCC2)cc2[nH]c(-c3c(NC[C@@H](O)c4cccc(Cl)c4)cc[nH]c3=O)nc12 | > 5120 |

Each molecule was assayed on SF-539 (assay: cells). Conditions: Homo sapiens, SF-539.
Assay type: functional, cell-based, Homo sapiens
Description: SANGER: Inhibition of human SF539 cell growth in a cell viability assay.

| SMILES | IC50 [nM] |
| --- | --- |
| Cc1cc(N2CCOCC2)cc2[nH]c(-c3c(NC[C@@H](O)c4cccc(Cl)c4)cc[nH]c3=O)nc12 | > 5120 |

Each molecule was assayed on SHP77 (assay: cells). Conditions: Homo sapiens, SHP77.
Assay type: functional, cell-based, Homo sapiens, SHP-77
Description: SANGER: Inhibition of human SHP-77 cell growth in a cell viability assay.

| SMILES | IC50 [nM] |
| --- | --- |
| Cc1cc(N2CCOCC2)cc2[nH]c(-c3c(NC[C@@H](O)c4cccc(Cl)c4)cc[nH]c3=O)nc12 | > 5120 |

Each molecule was assayed on SJSA-1 (assay: cells). Conditions: Homo sapiens, SJSA-1.
Assay type: functional, cell-based, Homo sapiens
Description: SANGER: Inhibition of human SJSA-1 cell growth in a cell viability assay.

| SMILES | IC50 [nM] |
| --- | --- |
| Cc1cc(N2CCOCC2)cc2[nH]c(-c3c(NC[C@@H](O)c4cccc(Cl)c4)cc[nH]c3=O)nc12 | 456 |

Each molecule was assayed on SK-LMS-1 (assay: cells). Conditions: Homo sapiens, SK-LMS-1.
Assay type: functional, cell-based, Homo sapiens
Description: SANGER: Inhibition of human SK-LMS-1 cell growth in a cell viability assay.

| SMILES | IC50 [nM] |
| --- | --- |
| Cc1cc(N2CCOCC2)cc2[nH]c(-c3c(NC[C@@H](O)c4cccc(Cl)c4)cc[nH]c3=O)nc12 | 4810 |

The molecules below were run on SNB-75 (assay: cells). Conditions: Homo sapiens, SNB-75.
Assay type: functional, cell-based, Homo sapiens
Description: SANGER: Inhibition of human SNB75 cell growth in a cell viability assay.

| SMILES | IC50 [nM] |
| --- | --- |
| Cc1cc(N2CCOCC2)cc2[nH]c(-c3c(NC[C@@H](O)c4cccc(Cl)c4)cc[nH]c3=O)nc12 | 3430 |

What follows are molecules tested on SW684 (assay: cells). Conditions: Homo sapiens, SW684; read-out: IC50.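 Also: growth inhibition of human SW684 cells, measured by a cell viability assay.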
Assay type: functional, cell-based, Homo sapiens
Description: SANGER: Inhibition of human SW684 cell growth in a cell viability assay.

| SMILES | IC50 [nM] |
| --- | --- |
| Cc1cc(N2CCOCC2)cc2[nH]c(-c3c(NC[C@@H](O)c4cccc(Cl)c4)cc[nH]c3=O)nc12 | > 5120 |

The molecules below were run on SW 954 (assay: cells). Conditions: Homo sapiens, SW 954.
Assay type: functional, cell-based, Homo sapiens
Description: SANGER: Inhibition of human SW954 cell growth in a cell viability assay.

| SMILES | IC50 [nM] |
| --- | --- |
| Cc1cc(N2CCOCC2)cc2[nH]c(-c3c(NC[C@@H](O)c4cccc(Cl)c4)cc[nH]c3=O)nc12 | 490 |

Each molecule was assayed on SW982 (assay: cells). Conditions: Homo sapiens.
Assay type: functional, cell-based
Description: SANGER: Inhibition of human SW982 cell growth in a cell viability assay.

| SMILES | IC50 [nM] |
| --- | --- |
| Cc1cc(N2CCOCC2)cc2[nH]c(-c3c(NC[C@@H](O)c4cccc(Cl)c4)cc[nH]c3=O)nc12 | 718 |

Each molecule was assayed on TE-1 (assay: cells). Conditions: Homo sapiens, TE-1.
Assay type: functional, cell-based, Homo sapiens
Description: SANGER: Inhibition of human TE-1 cell growth in a cell viability assay.

| SMILES | IC50 [nM] |
| --- | --- |
| Cc1cc(N2CCOCC2)cc2[nH]c(-c3c(NC[C@@H](O)c4cccc(Cl)c4)cc[nH]c3=O)nc12 | 754 |

What follows are molecules tested on A3-KAW (assay: cells). Conditions: Homo sapiens, A3-KAW.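 Also: growth inhibition of human A3-KAW cells, read out with a cell viability assay.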
Assay type: functional, cell-based, Homo sapiens
Description: SANGER: Inhibition of human A3-KAW cell growth in a cell viability assay.

| SMILES | IC50 [nM] |
| --- | --- |
| Cc1cc(N2CCOCC2)cc2[nH]c(-c3c(NC[C@@H](O)c4cccc(Cl)c4)cc[nH]c3=O)nc12 | 1930 |

What follows are molecules tested on A388 (assay: cells). Conditions: Homo sapiens.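 Also: growth inhibition of human A388 cells, read out with a cell viability assay.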
Assay type: functional, cell-based
Description: SANGER: Inhibition of human A388 cell growth in a cell viability assay.

| SMILES | IC50 [nM] |
| --- | --- |
| Cc1cc(N2CCOCC2)cc2[nH]c(-c3c(NC[C@@H](O)c4cccc(Cl)c4)cc[nH]c3=O)nc12 | > 5120 |

What follows are molecules tested on A704 (assay: cells). Conditions: Homo sapiens.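 Also: growth inhibition of human A704 cells, read out with a cell viability assay.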
Assay type: functional, cell-based
Description: SANGER: Inhibition of human A704 cell growth in a cell viability assay.

| SMILES | IC50 [nM] |
| --- | --- |
| Cc1cc(N2CCOCC2)cc2[nH]c(-c3c(NC[C@@H](O)c4cccc(Cl)c4)cc[nH]c3=O)nc12 | 1040 |

These molecules were tested on AM-38 (assay: cells). Conditions: Homo sapiens, AM-38.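 Also: growth inhibition of AM-38 cells of human origin, read out by a cell viability assay.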
Assay type: functional, cell-based, Homo sapiens
Description: SANGER: Inhibition of human AM-38 cell growth in a cell viability assay.

| SMILES | IC50 [nM] |
| --- | --- |
| Cc1cc(N2CCOCC2)cc2[nH]c(-c3c(NC[C@@H](O)c4cccc(Cl)c4)cc[nH]c3=O)nc12 | > 5120 |

The molecules below were run on Becker (assay: cells). Conditions: Homo sapiens, Becker.
Assay type: functional, cell-based, Homo sapiens
Description: SANGER: Inhibition of human Becker cell growth in a cell viability assay.

| SMILES | IC50 [nM] |
| --- | --- |
| Cc1cc(N2CCOCC2)cc2[nH]c(-c3c(NC[C@@H](O)c4cccc(Cl)c4)cc[nH]c3=O)nc12 | 4790 |

What follows are molecules tested on TE-6 (assay: cells). Conditions: Homo sapiens, TE-6.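 Also: growth inhibition of TE-6 cells, read out with a cell viability assay.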
Assay type: functional, cell-based, Homo sapiens
Description: SANGER: Inhibition of human TE-6 cell growth in a cell viability assay.

| SMILES | IC50 [nM] |
| --- | --- |
| Cc1cc(N2CCOCC2)cc2[nH]c(-c3c(NC[C@@H](O)c4cccc(Cl)c4)cc[nH]c3=O)nc12 | > 5120 |

These molecules were tested on TE-9 (assay: cells). Conditions: Homo sapiens, TE-9.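 Also: cell growth inhibition, measured with a cell viability readout.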
Assay type: functional, cell-based, Homo sapiens
Description: SANGER: Inhibition of human TE-9 cell growth in a cell viability assay.

| SMILES | IC50 [nM] |
| --- | --- |
| Cc1cc(N2CCOCC2)cc2[nH]c(-c3c(NC[C@@H](O)c4cccc(Cl)c4)cc[nH]c3=O)nc12 | 2500 |

Each molecule was assayed on TGW (assay: cells). Conditions: Homo sapiens, TGW.
Assay type: functional, cell-based, Homo sapiens
Description: SANGER: Inhibition of human TGW cell growth in a cell viability assay.

| SMILES | IC50 [nM] |
| --- | --- |
| Cc1cc(N2CCOCC2)cc2[nH]c(-c3c(NC[C@@H](O)c4cccc(Cl)c4)cc[nH]c3=O)nc12 | 683 |

The molecules below were run on TK-10 (assay: cells). Conditions: Homo sapiens, TK-10.
Assay type: functional, cell-based, Homo sapiens
Description: SANGER: Inhibition of human TK10 cell growth in a cell viability assay.

| SMILES | IC50 [nM] |
| --- | --- |
| Cc1cc(N2CCOCC2)cc2[nH]c(-c3c(NC[C@@H](O)c4cccc(Cl)c4)cc[nH]c3=O)nc12 | 2260 |
